Counter-ions that a name gives are not always drawn.
Key:
HIV protease = conditions: assays described in WO 95/16688; cited from earlier work
[1] = oral absorption and bioavailability in animal models; format: in vivo
[2] = hydrophobic/hydrophilic nature in formulation; format: physicochemical; conditions: dispersion during formulation; HCl (dihydrate) requires wetting agents

Question: For CC(C)(C)NC(=O)[C@@H]1CN(Cc2cc3ccccc3o2)CCN1C[C@@H](O)C[C@@H](Cc1ccccc1)C(=O)N[C@H]1c2ccccc2C[C@H]1O [Compound A, N-(2(R)-hydroxy-1(S)-indanyl)-2(R)-phenylmethyl-4-(S)-hydroxy-5-(1-(4-(2-benzo[b]furanylmethyl)-2(S)-N'-(t-butylcarboxamido)-piperazinyl))-pentaneamide], which “inhibition of HIV protease” value (HIV protease) is on record?
Answer: potent inhibitor of HIV protease

Question: Which oral absorption ([1]; oral, animal models) does the source give for CC(C)(C)NC(=O)[C@@H]1CN(Cc2cc3ccccc3o2)CCN1C[C@@H](O)C[C@@H](Cc1ccccc1)C(=O)N[C@H]1c2ccccc2C[C@H]1O [HCl (dihydrate) salt, reference compound] here?
Answer: poor

Question: What about the “hydrophobic or hydrophilic nature” value [2] of the same compound?
Answer: extremely hydrophobic

Question: What does the source list for CC(C)(C)NC(=O)[C@@H]1CN(Cc2cc3ccccc3o2)CCN1C[C@@H](O)C[C@@H](Cc1ccccc1)C(=O)N[C@H]1c2ccccc2C[C@H]1O [sulfate salt]?
Answer: rate of absorption ([1]; compared with the existing HCl, HBr and methanesulfonate salts): more rapidly absorbed than the existing HCl, HBr and methanesulfonate salts; bioavailability ([1]; oral, animal models): much greater; oral absorption ([1]; oral, animal models): much greater; hydrophobic or hydrophilic nature [2]: hydrophilic

Source: patent US6071916A, “HIV protease inhibitor” (priority 1998, dated 2000)
